Consider 20 molecules from patent US5593970A, “Heterocyclic anthracycline analogs” (priority 1994, dated 1997).

“And” between values parts separate entries of the source, which are not always exact repeats. Equal entries are not always repeated. Structures can show the parent of a compound that is named as a salt. Where two headings read alike, the source gives them in different places.

Holding throughout (test): Microculture tetrazolium assay
Type in all cases: cell-based

Assay [1] deals with SKOV3.
In assay [2] the test system is SKVLB. Conditions: for VLB/OV3: IC50 ratio SKVLB/SKOV3; for IC50: SKVLB.
Assay [3] relates to T47D.
Assay [4] concerns HT29.
For assay [5], the system named is LOX.
[6] abbreviates: Homo sapiens, SK-OV-3, SKOV3, read-out: IC50.
Setting [7] is: Homo sapiens, HT-29, HT29, read-out: IC50.

For `CC(=O)CC1CC2=C(C(=O)c3cc4ccccc4c(O)c3C2=O)C(O[C@H]2C[C@H](N)[C@H](O)[C@H](C)O2)O1` (mixture of isomers) [BCH-2111, (1'S,1R,3S) and (1'S,1S,3R)-3-6-hydroxy-1-(2',3',6'-trideoxy-3'-amino-4'-hydroxy-L-lyxohexopyranose-5,12-dioxo-3,4,5,12-tetrahydroanthraceno[2,3-c]pyran-3-yl)propanone hydrochloride], the IC50 in assay [1] (setting [6]) was found to be 2.14 µM; in assay [2] (read-out: IC50), 11.8 µM; in assay [3] (Homo sapiens, read-out: IC50), 2.42 µM; in assay [4] (setting [7]), 0.954 µM. The VLB/OV3 in assay [2] was found to be 5.51.

As for `CC(=O)[C@@H]1CC2=C(C(=O)c3cc4ccccc4c(O)c3C2=O)[C@@H](O[C@H]2C[C@H](NC(=O)C(F)(F)F)[C@H](O)[C@H](C)O2)O1` [BCH-730, (1S',1R,3S)-Methyl-(6-hydroxy-1-(3'-trifluoroacyldaunosamine)-5,12-dioxo-3,4,5,12-tetrahydroanthraceno[2,3-C]pyran-3-yl) ketone], the half-inhibitory concentration (IC50) was 3.52 µM in assay [1] (setting [6]); 2.01 µM and 2.88 µM in assay [2] (read-out: IC50); 3.62 µM in assay [3] (Homo sapiens, read-out: IC50); 3.08 µM in assay [3] (read-out: IC50); 1.78 µM in assay [5]; 1.66 µM in assay [5] (read-out: IC50).

Regarding `CC(=O)C1Cc2c(O)c3c(c(O)c2C(O[C@H]2C[C@H](N4CCOCC4)[C@H](O)[C@H](C)O2)O1)C(=O)c1ccccc1C3=O` (some centres unmarked) [BCH-1193], the IC50 was 1.95 µM in assay [1] (SKOV3); 4.79 µM and 4.92 µM in assay [2]; 2.57 µM and 4.16 µM in assay [3]; 1.04 µM and 0.94 µM in assay [4] (HT29). Moreover, the VLB/OV3 in assay [2] is given as 2.46.

Take `COC(=O)[C@H](C)O[C@@H]1OC(C(=O)OC)(C(=O)OC)CC2=C1C(=O)c1cc3ccccc3c(O)c1C2=O` [BCH-1668, (1R,1'S)-3,3-Bis-carbomethoxy-1-(1'-carbomethoxyethoxy)-5,12-dioxo-6-hydroxy-3,4,5,12-tetrahydroanthraceno[2,3-C]pyran]: the IC50 in assay [1] (setting [6]) stood at 6.2 µM; in assay [2] (read-out: IC50) it was 6.2 µM; in assay [5] (read-out: IC50) it was 5.2 µM; in assay [4] (setting [7]) it was 5.7 µM.

Consider `CC(=O)C1CC2=C(C(=O)c3cc4ccccc4c(O)c3C2=O)C(OC[C@H](O)CO)O1` (some centres unmarked) [BCH-1669], for which the half-maximal inhibitory concentration (IC50) in assay [1] (setting [6]) stood at 1.21 µM; in assay [2] (read-out: IC50), 1.05 µM; in assay [5] (read-out: IC50), 0.631 µM; in assay [4] (setting [7]), 0.591 µM. Also, the VLB/OV3 in assay [2] was found to be 0.87.

For `CC(=O)C1CC2=C(C(=O)c3cc4ccccc4c(O)c3C2=O)C(OC[C@@H](O)CO)S1` (some centres unmarked) [BCH-1670], the IC50 in assay [1] (setting [6]) came to 0.547 µM; in assay [2] (read-out: IC50), 0.68 µM; in assay [5] (read-out: IC50), 0.673 µM; in assay [4] (setting [7]) it was 0.342 µM. In assay [2], the VLB/OV3 is given as 1.24.

In the case of `CC(=O)[C@@H]1Cc2c(O)c3c(c(O)c2[C@@H](O[C@@H]2O[C@@H](C)[C@@H](O)[C@@H](O)C2I)O1)C(=O)c1ccccc1C3=O` (some centres unmarked) [BCH-1672], the IC50 turned out to be 0.343 µM in assay [1] (setting [6]), 0.99 µM in assay [2] (read-out: IC50), 0.232 µM in assay [5] (read-out: IC50) and 1.67 µM in assay [4] (setting [7]). Further, the VLB/OV3 in assay [2] came out at 2.89.

Consider `C[C@@H]1O[C@@H](O[C@H]2O[C@H](C(C)(F)F)CC3=C2C(=O)c2cc4ccccc4c(O)c2C3=O)C[C@H](NC(=O)C(F)(F)F)[C@@H]1O` [BCH-1676, (1'S,1R,3S)-5,12-dioxo-3-(1,1-difluoroethyl)-6-hydroxy-1-(2',3',6'-trideoxy-3'-trifluoroacetamido-L-lyxohexopyranose)-3,4,5,12-tetrahydroanthraceno-[2,3-c]-pyran], for which the half-maximal inhibitory concentration (IC50) in assay [1] (setting [6]) amounted to 2.46 µM; in assay [2] (read-out: IC50), 4.01 µM; in assay [5] (read-out: IC50) it was 2.31 µM; in assay [4] (setting [7]), 3.05 µM. For the same molecule, the VLB/OV3 in assay [2] is on record as 1.63.

In the case of `COP(=O)(CC(=O)[C@@H]1CC2=C(C(=O)c3cc4ccccc4c(O)c3C2=O)[C@@H](O[C@H]2C[C@H](NC(=O)C(F)(F)F)[C@H](O)[C@H](C)O2)O1)OC` [BCH-1678], the half-maximal inhibitory concentration (IC50) is 5.36 µM in assay [1] (Homo sapiens, SK-OV-3, SKOV3); 13.6 µM in assay [2]; 3.77 µM in assay [5]; 5.65 µM in assay [4] (Homo sapiens, HT-29, HT29). For the same molecule, in assay [2], the VLB/OV3 turned out to be 2.54.

With `COP(=O)(CC(=O)[C@H]1CC2=C(C(=O)c3cc4ccccc4c(O)c3C2=O)[C@H](O[C@H]2C[C@H](NC(=O)C(F)(F)F)[C@H](O)[C@H](C)O2)O1)OC` [BCH-1679], the half-maximal inhibitory concentration (IC50) was 1.2 µM in assay [1] (Homo sapiens, SK-OV-3, SKOV3); 3.6 µM in assay [2]; 1.1 µM in assay [5]; 1.1 µM in assay [4] (Homo sapiens, HT-29, HT29).

For `CC(=O)[C@H]1CC2=C(C(=O)c3cc4ccccc4c(O)c3C2=O)[C@H](O[C@@H]2O[C@@H](C)[C@@H](O)[C@@H](O)C2I)O1` (some centres unmarked) [BCH-1681], the concentration for half-maximal inhibition (IC50) worked out at 0.914 µM in assay [1] (setting [6]), 0.671 µM in assay [2] (read-out: IC50), 0.454 µM in assay [5] (read-out: IC50) and 0.123 µM in assay [4] (setting [7]). Also, the VLB/OV3 in assay [2] is recorded as 0.73.

For the molecule `CC(NC(=O)C(F)(F)F)C1Cc2c(O)c3c(c(O)c2C(O[C@H]2C[C@H](O)[C@H](O)[C@H](C)O2)O1)C(=O)c1ccccc1C3=O` (some centres unmarked) [BCH-1682], the half-inhibitory concentration (IC50) in assay [1] (setting [6]) was 24.7 µM; in assay [2] (read-out: IC50), above 100 µM; in assay [5] (read-out: IC50), 16.4 µM; in assay [4] (setting [7]) it was 25.8 µM.

Consider `CC(N)C1Cc2c(O)c3c(c(O)c2C(O[C@H]2C[C@H](O)[C@H](O)[C@H](C)O2)O1)C(=O)c1ccccc1C3=O` (stereo partly drawn) [BCH-1683, (1'S ,1S,3R)-3(aminoethyl)-5,12-dihydroxyl-1(2,3,6-trideoxy-3,4-dihydroxy-L-lyxohexopyranose)-6,11-dioxo-3,4,6,11-tetrahydro-1H-anthra[2,3-c]pyran hydrochloride], for which the IC50 in assay [1] (setting [6]) is 3.07 µM; in assay [2] (read-out: IC50) it was 11.4 µM; in assay [5] (read-out: IC50), 2.29 µM; in assay [4] (setting [7]), 1.35 µM. The VLB/OV3 in assay [2] was 3.71.

Consider `CC(=O)[C@@H]1Cc2c(O)c3c(c(O)c2[C@@H](O[C@H]2O[C@H](CO)[C@@H](O)[C@H](O)[C@H]2N)O1)C(=O)c1ccccc1C3=O` [BCH-1685, (1'R, 1R,3S)-3-aceto-5,12-dihydroxy-1(2-deoxy-2-amino-D-glucopyranose)-6,11-dioxo-3,4,6,11-tetrahydro-1H-anthra-[2,3-c]pyran], for which the IC50 in assay [1] (setting [6]) was 0.81 µM; in assay [2] (read-out: IC50) it was 53.2 µM; in assay [5] (read-out: IC50), 0.683 µM; in assay [4] (setting [7]), 1.93 µM. Besides, the VLB/OV3 in assay [2] turned out to be 65.68.

In the case of `C=CC[C@H]1CC2=C(C(=O)c3cc4ccccc4c(O)c3C2=O)[C@H](O[C@H]2C[C@H](NC(=O)C(F)(F)F)[C@H](O)[C@H](C)O2)O1` [BCH-1686, (1'S,1S,3S)-3-(6-hydroxy-1-(2',3',6'-trideoxy-3'-trifluoroacetamido-4'-hydroxy-L-lyxohexopyranose)-5,12-dioxo-3,4,5,12-tetrahydroanthraceno-[2,3-C]pyran-3-yl)propene], the IC50 in assay [1] (setting [6]) is 0.972 µM; in assay [2] (read-out: IC50), 2.53 µM; in assay [5] (read-out: IC50), 0.684 µM; in assay [4] (setting [7]), 1.84 µM. In assay [2], the VLB/OV3 is 2.60.

For `C=CC[C@@H]1CC2=C(C(=O)c3cc4ccccc4c(O)c3C2=O)[C@@H](O[C@H]2C[C@H](NC(=O)C(F)(F)F)[C@H](O)[C@H](C)O2)O1` [BCH-1687, (1S,1R,3R)-3-(6-hydroxy-1-(2',3',6'-trideoxy-3'-trifluoroacetamido-4'-hydroxy-L-lyxohexopyranose)-5,12-dioxo-3,4,5,12-tetrahydroanthraceno-[2,3-c]pyran-3-yl)propene], the half-maximal inhibitory concentration (IC50) in assay [1] (setting [6]) was determined as 0.791 µM; in assay [2] (read-out: IC50) it was 1.86 µM; in assay [5] (read-out: IC50), 0.706 µM; in assay [4] (setting [7]), 1.24 µM. For the same molecule, the VLB/OV3 in assay [2] is recorded as 2.35.

Turning to `C=CC[C@@H]1CC2=C(C(=O)c3cc4ccccc4c(O)c3C2=O)[C@@H](O[C@H]2C[C@H](N)[C@H](O)[C@H](C)O2)O1` [BCH-2005, (1'S,1R,3R)-3-(6-hydroxy-1-(2',3',6'-trideoxy-3'-amino-4'-hydroxy-L-lyxohexopyranose)-5,12-dioxo-3,4,5,12-tetrahydroanthraceno-[2,3-c]pyran-3-yl)propene hydrochloride], the concentration for half-maximal inhibition (IC50) in assay [1] (setting [6]) amounted to 0.341 µM; in assay [2] (read-out: IC50), 0.364 µM; in assay [5] (read-out: IC50) it was 0.138 µM; in assay [4] (setting [7]), 0.245 µM. The VLB/OV3 in assay [2] came out at 1.07.

As to `C=CC[C@@H]1Cc2c(O)c3c(c(O)c2[C@@H](O[C@H]2C[C@H](NC(=O)C(F)(F)F)[C@H](O)[C@H](C)O2)O1)C(=O)c1ccccc1C3=O` [BCH-2108, (1'S,1R,3R)-3-(5,12-dihydroxy-1-(2',3',6'-trideoxy-3'-trifluoroacetamido-4'-hydroxy-L-lyxohexopyranose)-6,11-dioxo-3,4,5,12-tetrahydroanthraceno-[2,3-c]pyran-3-yl)propene], the IC50 in assay [1] (setting [6]) came out at 11.4 µM; in assay [2] (read-out: IC50) it was 14.3 µM; in assay [3] (Homo sapiens, read-out: IC50) it was 11.9 µM; in assay [4] (setting [7]), 8.52 µM. In addition, the VLB/OV3 in assay [2] turned out to be 1.25.

As to `C=CC[C@H]1Cc2c(O)c3c(c(O)c2[C@H](O[C@H]2C[C@H](NC(=O)NCCCl)[C@H](O)[C@H](C)O2)O1)C(=O)c1ccccc1C3=O` [BCH-2110], the IC50 was found to be 2.48 µM in assay [1] (Homo sapiens, SK-OV-3, SKOV3); 2.83 µM in assay [2]; 2.46 µM in assay [3] (Homo sapiens); 1.51 µM in assay [4] (Homo sapiens, HT-29, HT29). For the same molecule, the VLB/OV3 in assay [2] worked out at 1.14.

For the molecule `CC(=O)C1Cc2c(O)c3c(c(O)c2C(OC2CCC(NC(=O)N(CCCl)N=O)CC2)O1)C(=O)c1ccccc1C3=O` [BCH-2116, (1R,3S) and (1S ,3R)-3-aceto-6,11-dioxo-5,12-dihydroxy-1(4-chloroethylnitrosoureido-cyclohexyl-oxy)-3,4,6,11-tetrahydro-1H-anthra[2,3-C]pyran], the concentration for half-maximal inhibition (IC50) came to 18.7 µM in assay [1] (Homo sapiens, SK-OV-3, SKOV3); 50.1 µM in assay [2]; 22.7 µM in assay [3] (Homo sapiens); 23.3 µM in assay [4] (Homo sapiens, HT-29, HT29). Also, the VLB/OV3 in assay [2] is recorded as 2.68.

The IC50 is the point on the concentration scale where inhibition reaches its midpoint.
